Assay results from the NIST ThermoML archive (doi:10.1016/j.fluid.2009.07.010).

Legend:
[1] = for mass density: 298.1 K, 101.33 kPa, Liquid, Vibrating tube method; for surface tension liquid-gas: 298.15 K, Drop volume
[2] = xn = mol fraction of the nth substance listed; settings: 298.15 K; for surface tension liquid-gas: Drop volume; for mass density: 101 kPa, Liquid, Vibrating tube method

CCCCn1cc[n+](C)c1.F[B-](F)(F)F [1-butyl-3-methylimidazolium tetrafluoroborate]
[1]
Settings	mass density [kg/m3]	surface tension liquid-gas [mN/m]
–	1201.2	45.33

CCCCn1cc[n+](C)c1.F[B-](F)(F)F [1-butyl-3-methylimidazolium tetrafluoroborate] + CCO
[2]
Settings	mass density [kg/m3]	surface tension liquid-gas [mN/m]
x1 = 0.0986	897.2	22.83
x1 = 0.2002	977.4	23.28
x1 = 0.2553	1010.7	24.65
x1 = 0.2881	1027.9	–
x1 = 0.3284	1046.8	25.53
x1 = 0.3999	1075.5	26.55
x1 = 0.4202	1082.7	27.2
x1 = 0.5024	1108.6	28.87
x1 = 0.6082	1135.9	31.32
x1 = 0.7107	1157.4	34.9
x1 = 0.804	1173.7	37.99
x1 = 0.9059	1188.8	41.54
x1 = 1	1201.2	45.33

CCCCn1cc[n+](C)c1.F[B-](F)(F)F [1-butyl-3-methylimidazolium tetrafluoroborate] + O
[2]
Settings	mass density [kg/m3]	surface tension liquid-gas [mN/m]
x1 = 0.0001	–	61.54
x1 = 0.0003	–	61.5
x1 = 0.0017	1000.9	–
x1 = 0.0035	1004.8	–
x1 = 0.0039	–	57.3
x1 = 0.0052	1008.5	–
x1 = 0.0058	–	54.34
x1 = 0.0069	1011.9	–
x1 = 0.0074	–	51.77
x1 = 0.0092	1014.4	–
x1 = 0.0094	–	50.63
x1 = 0.0197	1030.6	–
x1 = 0.02	–	46.93
x1 = 0.0335	1048.2	–
x1 = 0.0404	–	46.02
x1 = 0.0498	–	46.27
x1 = 0.0502	1065.2	–
x1 = 0.0586	–	46.25
x1 = 0.0698	–	46.14
x1 = 0.0736	1084.1	–
x1 = 0.0799	–	45.99
x1 = 0.0998	–	46.19
x1 = 0.1013	–	45.63
x1 = 0.1072	1103.9	–
x1 = 0.1081	–	46.23
x1 = 0.139	–	46.22
x1 = 0.1398	1118	–
x1 = 0.1621	–	46.16
x1 = 0.1688	1128	–
x1 = 0.1788	–	46.06
x1 = 0.1818	–	45.91
x1 = 0.2128	–	45.62
x1 = 0.252	1148.2	–
x1 = 0.2963	1156.2	46.25
x1 = 0.3734	1166.9	–
x1 = 0.4067	1169.4	46.32
x1 = 0.4408	1171.9	–
x1 = 0.4946	1177.9	–
x1 = 0.5252	1178.7	–
x1 = 0.5304	1181.5	46.02
x1 = 0.5723	1181.8	–
x1 = 0.6	1185	–
x1 = 0.6326	1187.9	45.81
x1 = 0.6922	1189.4	–
x1 = 0.7065	1191.1	45.68
x1 = 0.8003	–	45.52
x1 = 0.8167	1193.7	–
x1 = 0.9005	1197.8	45.41
x1 = 1	1201.2	45.33

CCn1cc[n+](C)c1.F[B-](F)(F)F [1-ethyl-3-methylimidazolium tetrafluoroborate]
[1]
Settings	mass density [kg/m3]	surface tension liquid-gas [mN/m]
–	1279.9	52.81

CCn1cc[n+](C)c1.F[B-](F)(F)F [1-ethyl-3-methylimidazolium tetrafluoroborate] + CCO
[2]
Settings	mass density [kg/m3]	surface tension liquid-gas [mN/m]
x1 = 0.6087	1190.3	33.58
x1 = 0.7056	1225.5	37.37
x1 = 0.8072	1241.6	42.77
x1 = 0.9054	1262.6	47.41
x1 = 1	1279.9	53.04

CCn1cc[n+](C)c1.F[B-](F)(F)F [1-ethyl-3-methylimidazolium tetrafluoroborate] + O
[2]
Settings	mass density [kg/m3]	surface tension liquid-gas [mN/m]
x1 = 0.004	1005.5	67.38
x1 = 0.0077	1013.2	65
x1 = 0.0123	1021.8	62.87
x1 = 0.0132	1023.4	61.91
x1 = 0.0288	1046.4	58.15
x1 = 0.0483	1068.2	57.31
x1 = 0.0709	1088.6	55.92
x1 = 0.102	1111.7	55.24
x1 = 0.1418	1135.8	54.43
x1 = 0.2141	1169.1	53.8
x1 = 0.2191	1171	–
x1 = 0.2894	–	54.15
x1 = 0.3118	1200.3	–
x1 = 0.4011	–	54.01
x1 = 0.4551	1230	–
x1 = 0.4987	1236.7	–
x1 = 0.5074	–	53.88
x1 = 0.5923	1248.6	–
x1 = 0.6018	–	53.73
x1 = 0.691	1258.5	–
x1 = 0.7534	–	53.51
x1 = 0.7774	1265.5	–
x1 = 0.9015	–	53.25
x1 = 1	1279.9	53.04

CCCCCCn1cc[n+](C)c1.F[B-](F)(F)F [1-hexyl-3-methylimidazolium tetrafluoroborate]
[1]
Settings	mass density [kg/m3]	surface tension liquid-gas [mN/m]
–	1145.4	37.33

CCCCCCn1cc[n+](C)c1.F[B-](F)(F)F [1-hexyl-3-methylimidazolium tetrafluoroborate] + CCO
[2]
Settings	mass density [kg/m3]	surface tension liquid-gas [mN/m]
x1 = 0.098	893.9	23.11
x1 = 0.1998	964.6	24.21
x1 = 0.3	1011.9	25.62
x1 = 0.3991	1046.1	27.09
x1 = 0.5079	1073.7	28.82
x1 = 0.6123	1095.5	30.74
x1 = 0.702	1108.8	32.47
x1 = 0.803	1123.9	34.22
x1 = 0.9	1134.7	35.75
x1 = 1	1145.5	37.33

CCCCCCn1cc[n+](C)c1.F[B-](F)(F)F [1-hexyl-3-methylimidazolium tetrafluoroborate] + O
[2]
Settings	mass density [kg/m3]	surface tension liquid-gas [mN/m]
x1 = 0.3032	1115.8	37.93
x1 = 0.4059	1123.9	37.79
x1 = 0.5058	1129.2	37.65
x1 = 0.6061	1133.8	37.52
x1 = 0.7057	1137.4	37.4
x1 = 0.803	1140.3	37.35
x1 = 0.9002	1142.6	37.33
x1 = 1	1145.5	37.33

CCCCCCCC[n+]1ccn(C)c1.F[B-](F)(F)F [1-methyl-3-octylimidazolium tetrafluoroborate]
[1]
Settings	mass density [kg/m3]	surface tension liquid-gas [mN/m]
–	1104.2	32.84

CCCCCCCC[n+]1ccn(C)c1.F[B-](F)(F)F [1-methyl-3-octylimidazolium tetrafluoroborate] + CCO
[2]
Settings	mass density [kg/m3]	surface tension liquid-gas [mN/m]
x1 = 0.1012	893	23.33
x1 = 0.2034	957.9	24.7
x1 = 0.3	996.6	25.99
x1 = 0.4096	1026.4	27.28
x1 = 0.5125	1047.8	27.9
x1 = 0.6156	1065.2	28.88
x1 = 0.7207	1079.3	29.9
x1 = 0.815	1088.8	30.86
x1 = 0.9014	1095.6	31.84
x1 = 1	1104.2	32.82

CCO [ethanol]
[1]
Settings	mass density [kg/m3]	surface tension liquid-gas [mN/m]
–	785.8	22

CCO [ethanol] + CCn1cc[n+](C)c1.F[B-](F)(F)F
[2], x2 = 0
Settings	mass density [kg/m3]	surface tension liquid-gas [mN/m]
–	785.8	52.81

O [water]
Settings	surface tension liquid-gas [mN/m]
[1]	71.35

O [water] + CCCCn1cc[n+](C)c1.F[B-](F)(F)F
Settings	surface tension liquid-gas [mN/m]
[2], x2 = 0	71.35

O [water] + CCn1cc[n+](C)c1.F[B-](F)(F)F
Settings	surface tension liquid-gas [mN/m]
[2], x2 = 0	71.35
